# What was measured:
# Gpr139−/− mice [1] = conditions: Gpr139−/− mice vs wild-type, multiple drug doses
# [2] = test system: transgenic C. elegans (tgMOR) that express mammalian MOR; conditions: in vivo
# Gpr139−/− mice [3] = experiment: Conditioned place preference paradigm; assay type: in vivo; conditions: Gpr139−/− mice vs wild-type
smiles,measurement,setting,value
CN1CC[C@]23c4c5ccc(O)c4O[C@H]2[C@@H](O)C=C[C@H]3[C@H]1C5 [morphine],"analgesia, maximal response and duration of effect",Gpr139−/− mice [1],significantly increased morphine analgesia
same,time to maximum paralysis and recovery,[2],reached maximum paralysis and recovered more quickly
same,rewarding effects,Gpr139−/− mice [3],substantially augmented responses
